One assay has as its target T1, dopamine D5 receptor (Homo sapiens, UniProt P21918).
T1 construct: expressed in transfected cells; host or cells: Cos-7 cells
The experiment in a line: cAMP in Cos-7 cells transfected with dopamine D5 receptor. The assay is classed as cell-based. Particulars: 10 μM, dopamine D5 (FIG. 7). As to the method: (§1) A typical protocol for the electroporation method as applied to Cos-7 cells is described as follows. Cells to be used for transfection are split 24 hours prior to the transfection to provide flasks which are subconfluent at the time of transfection. The cells are harvested by trypsinization resuspended in their growth media and counted. 5×10^6 cells are suspended in 300 μl of DMEM and placed into an electroporation cuvette. 8 μg of receptor DNA plus 8 μg of any additional DNA needed (e.g. G protein expression vector, reporter construct, antibiotic resistance marker, mock vector, etc.) is added to the cell suspension, the cuvette is placed into a BioRad Gene Pulser and subjected to an electrical pulse (Gene Pulser settings: 0.25 kV voltage, 950 μF capacitance). Following the pulse, 800 μl of complete DMEM is added to each cuvette and the suspension transferred to a sterile tube. Complete medium is added to each tube to bring the final cell concentration to 1×10^5 cells/100 μl. […]
(§2) The receptor-mediated stimulation or inhibition of cyclic AMP (cAMP) formation may be assayed in cells expressing the receptors. […] The plates are stored at 4° C. for 15 min, and the cAMP content in the stopping solution is measured by radioimmunoassay. Radioactivity may be quantified using a gamma counter equipped with data reduction software. […]

For another assay, the target named is T2, serotonin 5-HT4 receptor (Homo sapiens, UniProt Q13639).
T2 construct: expressed in transfected cells; host or cells: Cos-7 cells
The experiment in a line: cAMP in Cos-7 cells transfected with serotonin 5-HT4 receptor. It counts as cell-based. Particulars: 10 μM, serotonin 5-HT4 (FIG. 7). As to the method:
as §1, §2

T2 sequence (Q13639 whole entry): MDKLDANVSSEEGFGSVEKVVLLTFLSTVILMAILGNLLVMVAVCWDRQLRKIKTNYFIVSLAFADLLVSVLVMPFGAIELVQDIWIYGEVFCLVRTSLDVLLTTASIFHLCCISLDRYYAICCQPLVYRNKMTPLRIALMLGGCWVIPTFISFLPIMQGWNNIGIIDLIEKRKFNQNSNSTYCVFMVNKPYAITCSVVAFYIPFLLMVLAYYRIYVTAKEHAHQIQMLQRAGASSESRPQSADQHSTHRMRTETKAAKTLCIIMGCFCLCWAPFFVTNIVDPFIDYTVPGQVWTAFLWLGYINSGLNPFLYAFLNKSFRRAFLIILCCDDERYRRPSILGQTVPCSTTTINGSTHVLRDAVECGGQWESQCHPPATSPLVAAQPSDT
T1 sequence (P21918 whole entry): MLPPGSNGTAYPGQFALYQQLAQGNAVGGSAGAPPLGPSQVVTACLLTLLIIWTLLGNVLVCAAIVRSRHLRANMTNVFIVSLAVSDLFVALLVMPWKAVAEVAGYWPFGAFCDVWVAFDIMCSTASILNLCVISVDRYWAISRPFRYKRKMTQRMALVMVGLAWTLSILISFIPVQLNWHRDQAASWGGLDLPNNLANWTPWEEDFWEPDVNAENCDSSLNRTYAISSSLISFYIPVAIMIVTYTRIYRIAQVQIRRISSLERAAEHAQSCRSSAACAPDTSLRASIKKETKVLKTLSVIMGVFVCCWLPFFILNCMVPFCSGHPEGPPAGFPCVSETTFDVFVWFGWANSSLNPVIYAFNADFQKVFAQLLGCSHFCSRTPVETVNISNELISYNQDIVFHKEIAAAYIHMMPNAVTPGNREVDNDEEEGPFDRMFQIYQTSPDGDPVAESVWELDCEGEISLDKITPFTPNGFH

As to `CC1=C(/C=C/C(C)=C/C=C/C(C)=C/C(=O)O)C(C)(C)CCC1` [ATRA, all-trans-retinoic acid], the cAMP response entry on dopamine D5 receptor and at serotonin 5-HT4 receptor was “no response” each time.

For the origin of these results see patent publication US7416848B2, “DNA encoding SNORF25 receptor” (H. Lundbeck A/S, priority 1999, dated 2008).
